Reference: patent US5340591A, “Method of producing a solid dispersion of the sparingly water-soluble drug, nilvadipine” (Fujisawa Pharmaceutical Co., Ltd., priority 1992, dated 1994)
≈ marks a conversion by molar mass, not a printed value.

Assay: Solubility of nilvadipine bulk substance
Type: physicochemical
Settings: J.P.

Work on `COC(=O)C1=C(C#N)NC(C)=C(C(=O)OC(C)C)C1c1cccc([N+](=O)[O-])c1` (centres unmarked) [nilvadipine bulk substance, nilvadipine] yielded a solubility (1st fluid) of 1.3 µg/mL (≈ 3.37 µM) and a solubility (2nd fluid) of 1 µg/mL (≈ 2.59 µM).
